According to US6710168B1, “Glycopeptide antibiotics, combinatorial libraries of glycopeptide antibiotics and methods of producing same” (The Trustees of the University of Princeton, priority 1999, dated 2004):
Converted amounts (≈) assume the structure as drawn. Read-outs that look alike come from different tables or passages of the source.

Assays:
Type in all cases: cell-based
[1] = test system: gentamicin, streptmycin, vancomycin resistant Enterococcus faecalis (ATCC 51299); experiment: microbe, parasite or virus in culture; conditions: for MIC: Enterococcus faecalis, ATCC51299, read-out: MIC VREF; for MIC VREF: Enterococcus faecalis ATCC51299, vancomycin resistance
Experimental: (§1) Evaluation of vancomycin analogs is performed using in vitro susceptibility tests and a time-kill assay. [NCCL Standard, 1993] In susceptibility tests, five strains of bacteria, two of the most important: Staphylococcus aureus and Enterococcus faecalis (both susceptible and resistant strains), and Bacillus cereus are chosen and bacteria viability remaining in each well is evaluated using a colorimetric assay based on the tetrazolium salt 3-(4,5-dimethyl-2-thiazolyl)-2,5-diphenyl-2H tetrazolium bromide (MTT) and minimum inhibitory concentration (MIC) values are determined as μg/mL. [Mosmann, T. (1983); Damour, O., et al. (1992); Mikami, Y., et al. (1994)] This assay gives susceptibility information quickly, efficiently, and clearly.
(§2) All strains [Bacillus cereus (ATCC® 11778), Staphylococcus aureus (ATCC® 29213), Methicillin resistant Staphylococcus aureus (ATCC® 33591), Enterococcus faecalis (ATCC® 29212), and gentamicin, streptmycin, vancomycin resistant Enterococcus faecalis (ATCC® 51299), are purchased from REMEL (Lenexa, Kans.).
(§3) MICs are determined by the microdilution method using 96-well microplates. Samples are suspended with Cation Adjusted (20 to 25 mg of Ca^2+/mL and 10 to […] of Mg^2+) Mueller-Hinton broth (Difco Laboratories, Detroit, Mich.) and are two-fold diluted from 5 μg/mL to […] on microplates (12 step dilution). To each well, which contained 100 μL of cell suspension (10^6 CFU/mL), 100 μL of antibiotic solution is added and the plates are incubated at 37° C. for 24 h. 50 μL of MTT solution (1 mg/mL) is added to each well, then the plates are incubated under the same conditions (incubation time; 30 min for Bacillus cereus, Staphylococcus aureus, and Methicillin resistant Staphylococcus aureus; 2 hours for Enterococcus faecalis and Gentamicin, Streptmycin, Vancomycin Enterococcus faecalis). MTT is a yellow tetrazolium salt that is reduced by mitochondrial enzymes in viable cells to an insoluble blue formazan product. MIC values are evaluated by observing the lowest drug concentration to inhibit bacteria growth.

[2] = test system: Enterococcus faecium CL5137, VanA; experiment: MIC susceptibility test; conditions: for MIC: read-out: MIC CL5137
[3] = test system: Enterococcus faecalis CL5244, VanB; experiment: MIC susceptibility test; conditions: for MIC: read-out: MIC CL5244
Experimental: as §1, §3

[4] = test system: Staphylococcus aureus (ATCC 29213); experiment: MIC susceptibility test, microdilution with MTT readout
Experimental: as §1, §2, §3

[5] = test system: Methicillin resistant Staphylococcus aureus (ATCC 33591); experiment: as above; conditions: for MIC: ATCC 3359 / ATCC 33591 / MRSA, read-out: MIC MRSA
Experimental: as §1, §2, §3

[6] = test system: Enterococcus faecalis (ATCC 29212); experiment: as above
Experimental: as §1, §2, §3

[7] = test system: Bacillus cereus (ATCC 11778); experiment: as above; conditions: for MIC: Bacillus cereus, ATCC11778, read-out: MIC BC; for MIC BC: Bacillus ceres ATCC11778
Experimental: as §1, §2, §3

[8] = Enterococcus faecium CL5137, VanA
[9] = Enterococcus faecalis CL5244, VanB
[10] = Staphylococcus aureus ATCC29213
[11] = Staphylococcus aureus ATCC3359, Methicillin resistance
[12] = Enterococcus faecalis ATCC29212
[13] = Staphylococcus aureus ATCC29213, read-out: MIC SA
[14] = Enterococcus faecalis ATCC29212, read-out: MIC EF

Compound | MIC [1] | MIC ([2]; Enterococcus faecium) | MIC ([3]; Enterococcus faecalis) | MIC ([4]; Staphylococcus aureus, ATCC29213, read-out: MIC SA) | MIC ([5]; Staphylococcus aureus) | MIC ([6]; Enterococcus faecalis, ATCC29212, read-out: MIC EF) | MIC [7] | MIC VREF [1] | MIC CL5137 [2, 8] | MIC CL5244 [3, 9] | MIC SA [4, 10] | MIC MRSA [5, 11] | MIC EF [6, 12] | MIC BC [7] | MIC [2, 8] | MIC [3, 9] | MIC [4, 13] | MIC [5, 11] | MIC [6, 14]
CN[C@H](CC(C)C)C(=O)N[C@H]1C(=O)N[C@@H](CC(N)=O)C(=O)N[C@H]2C(=O)N[C@H]3C(=O)N[C@H](C(=O)N[C@H](C(=O)O)c4cc(O)cc(O)c4-c4cc3ccc4O)[C@H](O)c3ccc(c(Cl)c3)Oc3cc2cc(c3OC2OC(CO)C(O)C(O)C2OC2CC(C)(N)C(O)C(C)O2)Oc2ccc(cc2Cl)[C@H]1O (stereo partly shown) [I, vancomycin, reference compound] | > 5 µg/mL | 1600 µg/mL (≈ 1100 µM) | 25 µg/mL (≈ 17.3 µM) | 1 µg/mL (≈ 0.69 µM) | 1.3 µg/mL (≈ 0.897 µM) | 1.3 µg/mL (≈ 0.897 µM) | 1 µg/mL (≈ 0.69 µM) | – | – | – | – | – | – | – | – | – | – | – | –
CNC(CC(C)C)C(=O)NC1C(=O)NC(CC(N)=O)C(=O)NC2C(=O)NC3C(=O)NC(C(=O)NC(C(=O)O)c4cc(O)cc(O)c4-c4cc3ccc4O)C(O)c3ccc(c(Cl)c3)Oc3cc2cc(c3OC2OC(CNCc3ccc(-c4ccc(Cl)cc4)o3)C(O)C(O)C2OC2CC(C)(N)C(O)C(C)O2)Oc2ccc(cc2Cl)C1O (stereo not shown) [XXX, Glucose-C6-N-5-(4-chlorophenyl)furan-1-methylene Vancomycin] | – | – | – | – | – | – | – | 0.63 µg/mL (≈ 0.384 µM) | 50< μg/mL | 1.6 µg/mL (≈ 0.976 µM) | 0.32 µg/mL (≈ 0.195 µM) | 0.32 µg/mL (≈ 0.195 µM) | 0.63 µg/mL (≈ 0.384 µM) | 0.63 µg/mL (≈ 0.384 µM) | – | – | – | – | –
CN[C@@H](CC(C)C)C(=O)N[C@H]1C(=O)N[C@@H](CC(N)=O)C(=O)N[C@H]2C(=O)NC3C(=O)N[C@H](C(=O)N[C@@H](C(=O)O)c4cc(O)cc(O)c4-c4cc3ccc4O)[C@H](O)c3ccc(c(Cl)c3)Oc3cc2cc(c3OC2OC(CNC(=O)C(F)(F)F)C(O)C(O)C2OC2CC(C)(N)C(O)C(C)O2)Oc2ccc(cc2Cl)[C@H]1O (stereo partly shown) [XL, Glucose-C6-trifluoroacetamide Vancomycin] | 5 µg/mL (≈ 3.24 µM) | – | – | – | – | – | 1.3 µg/mL (≈ 0.842 µM) | – | – | – | – | – | – | – | > 50 µg/mL | 25 µg/mL (≈ 16.2 µM) | 0.48 µg/mL (≈ 0.311 µM) | 1 µg/mL (≈ 0.648 µM) | 1.3 µg/mL (≈ 0.842 µM)
CNC(CC(C)C)C(=O)NC1C(=O)NC(CC(N)=O)C(=O)NC2C(=O)NC3C(=O)NC(C(=O)NC(C(=O)O)c4cc(O)cc(O)c4-c4cc3ccc4O)C(O)c3ccc(c(Cl)c3)Oc3cc2cc(c3OC2OC(CNCc3ccc(-c4ccc(Cl)cc4)o3)C(O)C(O)C2OC2CC(C)(NCc3ccc(-c4ccc(Cl)cc4)cc3)C(O)C(C)O2)Oc2ccc(cc2Cl)C1O (stereo not shown) [L, Glucose-C6-N-5-(4-chlorophenyl)furan-1-methylene-vancosamine-N-4-(4-chlorophenyl)benzyl Vancomycin] | – | – | – | – | – | – | – | 1.0 µg/mL (≈ 0.544 µM) | 6.3 µg/mL (≈ 3.42 µM) | 0.8 µg/mL (≈ 0.435 µM) | 5.0 µg/mL (≈ 2.72 µM) | 2.5 µg/mL (≈ 1.36 µM) | 1.3 µg/mL (≈ 0.707 µM) | 3.8 µg/mL (≈ 2.07 µM) | – | – | – | – | –
CNC(CC(C)C)C(=O)NC1C(=O)NC(CC(N)=O)C(=O)NC2C(=O)NC3C(=O)NC(C(=O)NC(C(=O)O)c4cc(O)cc(O)c4-c4cc3ccc4O)C(O)c3ccc(c(Cl)c3)Oc3cc2cc(c3OC2OC(CSc3ccccc3)C(O)C(O)C2OC2CC(C)(N)C(O)C(C)O2)Oc2ccc(cc2Cl)C1O (stereo not shown) [LIV, Glucose-C6-thiophenyl Vancomycin] | – | – | – | – | – | – | – | 2.5 µg/mL (≈ 1.62 µM) | 50< μg/mL | 13 µg/mL (≈ 8.43 µM) | 1.0 µg/mL (≈ 0.649 µM) | 0.63 µg/mL (≈ 0.409 µM) | 1.3 µg/mL (≈ 0.843 µM) | 1.3 µg/mL (≈ 0.843 µM) | – | – | – | – | –
CN[C@@H](CC(C)C)C(=O)N[C@H]1C(=O)N[C@@H](CC(N)=O)C(=O)N[C@H]2C(=O)NC3C(=O)N[C@H](C(=O)N[C@@H](C(=O)O)c4cc(O)cc(O)c4-c4cc3ccc4O)[C@H](O)c3ccc(c(Cl)c3)Oc3cc2cc(c3OC2OC(CSc3nc(N)cc(N)n3)C(O)C(O)C2OC2CC(C)(N)C(O)C(C)O2)Oc2ccc(cc2Cl)[C@H]1O (stereo partly shown) [LXII, Glucose-C6-6-thio-2,4-diaminopyrimidine Vancomycin] | 1.3 µg/mL (≈ 0.826 µM) | – | – | – | – | – | 0.63 µg/mL (≈ 0.4 µM) | – | – | – | – | – | – | – | > 50 µg/mL | 6.3 µg/mL (≈ 4 µM) | 1.9 µg/mL (≈ 1.21 µM) | 2.5 µg/mL (≈ 1.59 µM) | 1.3 µg/mL (≈ 0.826 µM)
CN[C@@H](CC(C)C)C(=O)N[C@H]1C(=O)N[C@@H](CC(N)=O)C(=O)N[C@H]2C(=O)NC3C(=O)N[C@H](C(=O)N[C@@H](C(=O)O)c4cc(O)cc(O)c4-c4cc3ccc4O)[C@H](O)c3ccc(c(Cl)c3)Oc3cc2cc(c3OC2OC(CSc3nc(C)cc(O)n3)C(O)C(O)C2OC2CC(C)(N)C(O)C(C)O2)Oc2ccc(cc2Cl)[C@H]1O (stereo partly shown) [LXXVIII, Glucose-C6-2-thio-4-hydroxy-6-methylpyrimidine Vancomycin] | 2.5 µg/mL (≈ 1.59 µM) | – | – | – | – | – | 0.63 µg/mL (≈ 0.4 µM) | – | – | – | – | – | – | – | > 50 µg/mL | 6.3 µg/mL (≈ 4 µM) | 1 µg/mL (≈ 0.636 µM) | 1.3 µg/mL (≈ 0.826 µM) | 0.63 µg/mL (≈ 0.4 µM)
CN[C@@H](CC(C)C)C(=O)N[C@H]1C(=O)N[C@@H](CC(N)=O)C(=O)N[C@H]2C(=O)NC3C(=O)N[C@H](C(=O)N[C@@H](C(=O)O)c4cc(O)cc(O)c4-c4cc3ccc4O)[C@H](O)c3ccc(c(Cl)c3)Oc3cc2cc(c3OC2OC(CSc3nnc(C)c(O)n3)C(O)C(O)C2OC2CC(C)(N)C(O)C(C)O2)Oc2ccc(cc2Cl)[C@H]1O (stereo partly shown) [LXIV, Glucose-C6-2-thio-6-azathymine Vancomycin] | 0.16 µg/mL (≈ 0.102 µM) | – | – | – | – | – | 0.08 µg/mL (≈ 0.0508 µM) | – | – | – | – | – | – | – | > 500 µg/mL | 1.2 µg/mL (≈ 0.762 µM) | 0.24 µg/mL (≈ 0.152 µM) | 0.32 µg/mL (≈ 0.203 µM) | 0.12 µg/mL (≈ 0.0762 µM)
CNC(CC(C)C)C(=O)NC1C(=O)NC(CC(N)=O)C(=O)NC2C(=O)NC3C(=O)NC(C(=O)NC(C(=O)O)c4cc(O)cc(O)c4-c4cc3ccc4O)C(O)c3ccc(c(Cl)c3)Oc3cc2cc(c3OC2OC(CI)C(O)C(O)C2OC2CC(C)(NCc3ccc(-c4ccc(Cl)cc4)cc3)C(O)C(C)O2)Oc2ccc(cc2Cl)C1O (stereo not shown) [LXXIIa, Vancosamine-N-4-(4-chlorophenyl)benzyl-glucose-C6-iodo vancomycin] | – | – | – | – | – | – | – | 0.32 µg/mL (≈ 0.182 µM) | 13 µg/mL (≈ 7.39 µM) | 0.3 µg/mL (≈ 0.17 µM) | 0.48 µg/mL (≈ 0.273 µM) | 0.63 µg/mL (≈ 0.358 µM) | 0.16 µg/mL (≈ 0.0909 µM) | 0.32 µg/mL (≈ 0.182 µM) | – | – | – | – | –
CN[C@@H](CC(C)C)C(=O)N[C@H]1C(=O)N[C@@H](CC(N)=O)C(=O)N[C@H]2C(=O)NC3C(=O)N[C@H](C(=O)N[C@@H](C(=O)O)c4cc(O)cc(O)c4-c4cc3ccc4O)[C@H](O)c3ccc(c(Cl)c3)Oc3cc2cc(c3OC2OC(CSc3nc(N)cc(O)n3)C(O)C(O)C2OC2CC(C)(N)C(O)C(C)O2)Oc2ccc(cc2Cl)[C@H]1O (stereo partly shown) [LXIII, Glucose-C6-2-thio-4-amino-6-hydroxypyrimidine Vancomycin] | > 5 µg/mL | – | – | – | – | – | 5 µg/mL (≈ 3.18 µM) | – | – | – | – | – | – | – | > 50 µg/mL | 6.3 µg/mL (≈ 4 µM) | 5 µg/mL (≈ 3.18 µM) | > 5 µg/mL | 2.5 µg/mL (≈ 1.59 µM)
